Read-outs that look alike come from different tables or passages of the source.
Columns and labels:
[1] = set-up: species or system humans; settings: for ALfemale (allowable limit): adult females, 58 kg body weight; for ALmale (allowable limit): adult males, 70 kg body weight
Method: Toxicological risk assessment of five previously characterized byproducts, per Sayoun, J; Crepet A; Gouanve F; Keromnes L; Espuche E. 2017. “Diffusion mechanism of byproducts resulting from the peroxide crosslinking of polyethylene.” J. Appl. Polym. Sci. 44525. doi: 10.1002/APP.44525, was carried out following ISO 10993-17:2002. Quantification was based on the maximum amount of chemical exposures from the anticipated maximum number of implants a patient may receive (in this case, 4 implants). An exhaustive literature search for toxicity data was conducted specific to each chemical of interest. This was accomplished via ToxPlanet (a federated search engine that extracts the content from 500+ websites). Biocompatibility endpoints were determined based on ISO 10993-1:2018 and recent United States Food and Drug Administration (US Food and Drug Administration 2016a. “Use of International Standard ISO-10993, ‘Biological evaluation of medical devices—Part 1: Evaluation and testing within a risk management process’: Guidance for Industry and Food and Drug Administration Staff.” Center for Devices and Radiological Health (CDRH), 68p). These endpoints include chronic toxicity, reproductive and developmental toxicity, genotoxicity, carcinogenicity, and sensitization.
The in silico methods utilized an expert-rule-based program (Toxtree version 3.1.0; Ideaconsult Ltd., 2018) and the statistics-based program VEGA version 1.2.8 and Benfenati, E; Manganaro, A; Gini, G. 2013. “VEGA-QSAR: AI inside a platform for predictive toxicology.” In CEUR Workshop Proceedings, Volume 1107: Proceedings of The Second Workshop on Popularize Artificial Intelligence, (PAI 2013), Turin, Italy), consistent with the International Council for Harmonisation of Technical Requirements for Pharmaceuticals for Human Use (ICH) and US FDA guidelines for the assessment of DNA reactive impurities in pharmaceuticals (M7 guidelines; International Council for Harmonisation of Technical Requirements for Pharmaceuticals for Human Use (ICH). 2017a. “ICH Harmonised Guideline: Assessment and Control of DNA Reactive (Mutagenic) Impurities in Pharmaceuticals to Limit Potential Carcinogenic Risk M7(R1) (Current Step 4 Version); US Food and Drug Administration (US FDA 2018. “Guidance for Industry: M7(R1) Assessment and Control of DNA Reactive (Mutagenic) Impurities in Pharmaceuticals to Limit Potential Carcinogenic Risk.” Center for Drug Evaluation and Research (CDER), Center for Biologics Evaluation and Research (CBER)).
The allowable limit (AL) was calculated using the no-observed-adverse-effect level (NOAEL) limits ascertained from the literature search and in silico methods described above. The NOAELs were then adjusted by the average body weight (BW) for adult males (70 kg) and adult females (58 kg). Following the recommendations of ISO 10993-17 and ICH Q3C(R7) (International Organization for Standardization (ISO). 2002. “ISO 10993-17: Biological Evaluation of Medical Devices—Part 17: Establishment of Allowable Limits for Leachable Substances.” ISO 10993-17: 2002; International Council for Harmonisation of Technical Requirements for Pharmaceuticals for Human Use (ICH). 2018. “ICH Harmonised Guideline: Impurities: Guideline for Residual Solvents Q3C(R7) (Current Step 4 Version).”), the values were then adjusted by a series of uncertainty factors (UFs). UF1=10 to account for interindividual variation; UF2=5 for extrapolation of effects from rats to humans; UF3=10 to account for extrapolation from an oral exposure study to systemic exposure risk associated with an implanted device; UF4=5 to account for extrapolation of results from a 90-day toxicity study in rodents to lifetime exposure associated with a permanent implant; and UF5=10 to account for extrapolation of a lowest-observed-adverse-effect level (LOAEL) to a NOAEL, if needed.

[2] = cited from earlier work

| SMILES | ALfemale (allowable limit) [1] | ALmale (allowable limit) [1] | half-life temperature ([2]; for 1 minute) [°C] | half-life temperature ([2]; for 1 hour) [°C] | half-life temperature ([2]; for 10 hours) [°C] |
| --- | --- | --- | --- | --- | --- |
| C=C(CC(C)(C)c1ccccc1)c1ccccc1 [2,4-Diphenyl-4-methyl-1-pentene] | 232 µg/day | 280 µg/day |  |  |  |
| CC(=O)c1ccccc1 [Acetophenone] | 9,810 μg/day | 11,800 μg/day |  |  |  |
| CC(C)(O)c1ccccc1 [Cumyl alcohol] | 1,800 μg/day | 1,800 μg/day |  |  |  |
| CC(C)(OOC(C)(C)c1ccccc1)c1ccccc1 [Dicumyl peroxide] | 1,860 μg/day | 2,240 μg/day | 120 | 80 | 61 |

— US11970600B2, “Di-cumyl peroxide crosslinking of UHMWPE” (priority 2021, dated 2024)
